For assay [1], the target named is T1, Firefly Luciferase (Photinus pyralis, UniProt P08659, K549A/L550V/N119G/N50D/S548I).
T1 construct: host or cells: Chinese hamster ovary (CHO) cells, transient transfection, cleared lysate
Put plainly: biochemical. Type of assay: biochemical.

Assay [2] concerns the target T2, Renilla Luciferase (Renilla reniformis, UniProt P27652).
T2 sequence (P27652 1-311): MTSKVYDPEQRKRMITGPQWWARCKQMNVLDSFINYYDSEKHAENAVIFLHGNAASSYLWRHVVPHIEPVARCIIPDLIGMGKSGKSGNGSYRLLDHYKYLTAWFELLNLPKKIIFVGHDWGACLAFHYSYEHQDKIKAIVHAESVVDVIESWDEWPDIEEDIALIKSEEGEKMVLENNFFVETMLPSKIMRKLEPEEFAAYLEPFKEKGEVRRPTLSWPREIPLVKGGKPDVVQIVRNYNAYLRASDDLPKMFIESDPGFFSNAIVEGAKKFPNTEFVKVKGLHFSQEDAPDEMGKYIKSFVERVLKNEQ
Put plainly: Quenching of the luminescent reaction of Renilla luciferase by RLQ reagents (Table 3). The format is biochemical. As for the experimental part:
Numerous chemical compounds were tested individually and in combination for their ability to rapidly quench luciferase catalyzed luminescent reactions. Table 1 and Table 3 present the potency of quenching firefly and Renilla luciferases, respectively, for representative concentrations of the compounds tested. The percentage of residual luminescent signal measured after addition of the test compound is indicative of its quenching efficiency. Whether used individually or in combination at varying concentrations, useful quench formulations should be capable of reducing luminescence from the luciferase reactions by 1,000-fold, i.e., to 0.1% of the starting luminescent emission.
Renilla luciferase reactions were performed by adding 100 μl of purified Renilla luciferase (typically diluted to 0.3 μg per ml in 75 mM HEPES, 0.02% BSA; pH 8) to a luminometer tube containing an equal volume of Renilla substrate solution (7.5 mM sodium acetate, 10 mM CDTA, 400 mM sodium sulfate, 25 μM APMBT, 15 mM sodium pyrophosphate, 2 μM coelenterazine; pH 5.5). Photon emission was quantified as previously described. The individual and combined chemical formulations summarized in Table 3 were evaluated for their ability to quench Renilla luciferase luminescence by adding 100 μl of the test solution to the luminescent reaction, then quantifying residual light emission as before.

Assay [3] has as its target T2, Renilla Luciferase. Description: Compatibility of BLA and BLQ reagent chemicals with the luminescent reaction of Renilla luciferase (Table 4). Type of assay: biochemical. The source says: Implicit to the concept of an integrated (i.e., sequential-measurement) dual-enzyme reporter assay is the necessity to efficiently quench luminescence from the first reporter enzyme such that the activity of the second luminescent reporter is not inhibited. Therefore a quench reagent is required that is extremely potent in quenching luminescence from the firefly reaction but can exist as a passive component in the subsequent luminesces reaction catalyzed by Renilla luciferase. Selected chemical components of Beetle Luciferase Activation (BLA) Reagent, and chemicals identified in Table 1 as candidate Beetle Luciferase Quench (BLQ) Reagents, were further evaluated to assess any inhibitory interaction they may have with the luminescent reaction catalyzed by Renilla luciferase. Table 4 summarizes the affect of these selected chemicals on the luminescent activity of Renilla luciferase. Because of its potent inhibitory affect on the firefly reaction, sodium pyrophosphate (Na4 PPi) was tested first. 100 μl Mathews' Buffer supplemented with 2 μM benzyl-coelenterazine and 15 mM Na4 PPi was dispensed into a luminometer tube containing approximately 3 ng of purified Renilla luciferase in 100 μl Mathews' Buffer, and luminescence was quantified. […]

Assay [4] deals with T1, Firefly Luciferase. Put plainly: biochemical. The conditions noted are these: read-out: Percent (%) Residual Firefly Luciferase Activity.
Method: Assays were performed using a cell extract prepared from CHO cells expressing firefly luciferase (described in detail below) and further supplemented with purified Renilla luciferase (approximately 0.3 μg/ml). Thus, the prepared extract simulates the experimental condition in which a single cell population is induced to simultaneously express two distinct luciferase reporter enzymes. Reactions to determine Renilla luciferase activity were conducted by first dispensing 10 μl of extract into a luminometer tube containing 100 μl BLA Reagent (75 mM HEPES, 4 mM MgSO4, 20 mM DTT, 100 μM EDTA, 530 μM ATP, 270 μM CoA, 470 μM beetle luciferin: pH 8.0), then adding 100 μl of one of the various BLQRLA test reagents. The 100% control value for Reporter #1, the firefly luciferase-mediated luminescent reaction, was determined by quantifying light emission from said reaction prior to addition of the designated BLQRLA Reagent. The 100% control value for Reporter #2, the Renilla luciferase-mediated luminescent reaction, was determined using the dual-reporter assay format in which
control BLQRLA Reagent (7.5 mM acetic acid, 15 mM Na4 PPi, 400 mM Na2 SO4, 2 μM coelenterazine; pH 5.0) was added to the firefly luciferase reaction in a 1:1 volume ratio.
[5] abbreviates: read-out: Percent (%) Residual Firefly Luciferase Activity.
[6] abbreviates: assay concentration 0.33% (v/v).

T1 sequence (P08659 whole entry N50D/N119G/S548I/K549A/L550V): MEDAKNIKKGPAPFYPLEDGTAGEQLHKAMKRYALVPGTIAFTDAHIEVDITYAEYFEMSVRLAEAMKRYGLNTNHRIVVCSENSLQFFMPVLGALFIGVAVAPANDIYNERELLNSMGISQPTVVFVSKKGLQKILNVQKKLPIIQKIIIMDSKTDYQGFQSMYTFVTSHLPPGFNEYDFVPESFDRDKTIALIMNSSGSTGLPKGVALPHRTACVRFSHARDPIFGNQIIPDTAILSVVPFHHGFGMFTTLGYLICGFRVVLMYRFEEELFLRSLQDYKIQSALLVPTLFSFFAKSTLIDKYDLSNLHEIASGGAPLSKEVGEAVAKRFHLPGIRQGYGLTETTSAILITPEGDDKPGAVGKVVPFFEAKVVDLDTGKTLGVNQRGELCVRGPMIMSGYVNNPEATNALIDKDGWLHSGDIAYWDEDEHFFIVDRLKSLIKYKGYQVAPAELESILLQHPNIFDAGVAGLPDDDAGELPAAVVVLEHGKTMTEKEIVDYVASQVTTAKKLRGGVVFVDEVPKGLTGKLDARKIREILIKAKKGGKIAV

Consider `c1ccc2scnc2c1` [BT, Benzothiazole], for which the remaining activity at 3000 µM on Firefly Luciferase [1] (setting [5]) was 2.3%.

On to `O=S(=O)([O-])[O-].[Na+].[Na+]` [Na2 SO4, sodium sulfate], for which the “Percent (%) Residual Firefly Luciferase Activity” value on Firefly Luciferase [1] (assay concentration 400 mM) is on record as 10%.

For the compound Tween ®20, the “Percent (%) Residual Renilla Luciferase Activity” value at Renilla Luciferase [2] (setting [6]) turned out to be 3.4%.

In the case of `O=C(O)CN(CC(=O)O)[C@@H]1CCCC[C@H]1N(CC(=O)O)CC(=O)O` (relative stereo) [CDTA, trans-1,2,-Diaminocyclohexane-N,N,N',N'-tetraacetic acid], at Firefly Luciferase [1] (setting [5]), the remaining activity at 15400 µM came out at 0.1%.

Regarding `c1ccc(-c2nc3ccccc3s2)cc1` [PBT, 2-Phenylbenzothiazole], the remaining activity at 150 µM at Firefly Luciferase [1] (assay concentration 0.15 mM, read-out: Percent (%) Residual Firefly Luciferase Activity) is 7.5%.

Take `CCCCCCCCCCP(C)(C)=O` [APO-10, Dimethyldecylphosphine Oxide]: the remaining activity at 1 % at Firefly Luciferase [1] (setting [5]) came to 1.9%.

With `CCCCO` [n-Butanol, n-butanol], the remaining activity at 1.67 % at Renilla Luciferase [2] (assay concentration 1.67% (v/v), read-out: Percent (%) Residual Renilla Luciferase Activity) was 4.5%.

With `Cc1ccc2nc(-c3ccc(N)cc3)sc2c1` [APMBT, 2-(4-aminophenyl)-6-methylbenzothiazole], the remaining activity at 7.6 µM on Firefly Luciferase [1] (setting [5]) worked out at 0.33%.

Regarding `CCCCCCCCCCCCOS(=O)(=O)[O-].[Na+]` [SDS, Sodium Dodecyl Sulfate], the remaining activity at 0.3 % on Firefly Luciferase [1] (setting [5]) was 0.079%. Also, the remaining activity at 0.33 % at Renilla Luciferase [2] (assay concentration 0.33% (w/v), read-out: Percent (%) Residual Renilla Luciferase Activity) came to 0.00029%.

`[Cl-].[Na+]` [NaCl]: the “Percent (%) Residual Firefly Luciferase Activity” value at Firefly Luciferase [1] (assay concentration 400 mM) is given as 8.3%.

In the case of `O=P([O-])([O-])O.[K+].[K+]` [K2 HPO4], the “Percent (%) Residual Firefly Luciferase Activity” value on Firefly Luciferase [1] (assay concentration 190 mM) is 8.3%.

As for `O=C(O)CC(O)(CC(=O)O)C(=O)O` [Citric Acid, pH 3, citric acid], at Renilla Luciferase [2] (assay concentration 6.67 mM, read-out: Percent (%) Residual Renilla Luciferase Activity), the remaining activity at 6670 µM turned out to be 5.3%.

With `Oc1ccccc1-c1nc2ccccc2s1` [HPBT, 2(O-Hydroxyphenyl)benzothiazole], the remaining activity at 30 µM at Firefly Luciferase [1] (setting [5]) worked out at 44%.

Take `O=C(O)CN(CCN(CC(=O)O)CC(=O)O)CC(=O)O` [EDTA, Ethylenediaminetetraacetic acid]: the remaining activity at 22700 µM on Firefly Luciferase [1] (setting [5]) worked out at 0.13%.

Take `CC(C)O` [iso-Propanol, iso-propanol]: the remaining activity at 14.4 % at Firefly Luciferase [1] (setting [5]) amounted to 2.3%.

On to `O=C(O)c1csc(-c2nc3ccc(O)cc3s2)n1` [Dehydroluciferin, 2-(6'-Hydroxy-2'-benzothiazolyl)-thiazole-4-carboxylic acid], for which the “Percent (%) Residual Firefly Luciferase Activity” value on Firefly Luciferase [1] (assay concentration: Saturating) worked out at 0.064%.

Turning to `Nc1ncnc2c1ncn2[C@@H](CO)O[C@@H](CO)COP(=O)(O)OP(=O)(O)OP(=O)(O)O` [or-ATP, Adenosine 5'-Triphosphate 2',3'-acyclic dialcohol, Periodate Oxidized, Borohydride Reduced], the remaining activity at 7600 µM at Firefly Luciferase [1] (setting [5]) is 0.78%.

Consider `O=[N+]([O-])[O-].[Na+]` [NaNO3], for which the “Percent (%) Residual Firefly Luciferase Activity” value at Firefly Luciferase [1] (assay concentration 400 mM) is listed as 2.1%.

In the case of `[I-].[Na+]` [NaI, sodium iodide], the “Percent (%) Residual Firefly Luciferase Activity” value at Firefly Luciferase [1] (assay concentration 400 mM) is reported as 0.078%. Further, on Renilla Luciferase [2] (assay concentration 330 mM), the “Percent (%) Residual Renilla Luciferase Activity” value is 5.9%.

As for `O=P([O-])([O-])OP(=O)([O-])[O-].[Na+].[Na+].[Na+].[Na+]` [Na4 PPi, Tetrasodium Pyrophosphate], the remaining activity at 31000 µM at Firefly Luciferase [1] (setting [5]) came out at 0.12%. Besides, on Renilla Luciferase [3] (Mathews' Buffer with 15 mM Na4 PPi added 1:1, compared to control lacking sodium pyrophosphate), the “inhibitory effect on the luminescent reaction catalyzed by Renilla luciferase” value is reported as “no inhibitory affect”. The activity at 7500 µM at Renilla Luciferase [3] (assay concentration 7.5 mM, control = 100%, read-out: Percent (%) Renilla Luciferase Activity) turned out to be 102%. For the same compound, the remaining activity at 7500 µM on Firefly Luciferase [4] was found to be 1%.

For the compound Triton ® X-100, at Renilla Luciferase [2] (setting [6]), the “Percent (%) Residual Renilla Luciferase Activity” value was 3.1%.
